# Assay results reported in patent US8242302B2, “Inhibitor of ischemic disorders” (Fukuoka University, priority 2007, dated 2012).
# How the values were obtained:
# [1] = system: middle cerebral artery (MCA) occlusion model mice; test: Evaluation of therapeutic effect on ischemia-reperfusion brain damage (MCA occlusion model, single i.v. dose after reperfusion); type: in vivo, male ddY mice; conditions: infarct volume at 24 h
# From the text: Thus, a model evaluated for therapeutic effect of ischemia-reperfusion brain damage was constructed by administering a drug after reperfusion in the MCA occlusion model, and the effect of the test compound as a therapeutic drug was investigated: the therapeutic effect evaluation model reflects the direct damage by reactive oxygen species (ROIs) and the process to the secondary oxidative stress and inflammatory response due to ROIs. (2) Evaluation Method for Therapeutic Effect of Ischemia-Reperfusion Brain Damage With the use of male ddY mice (25-30 g, 6-7 weeks old), middle cerebral artery (MCA) occlusion model mice were prepared according to the method of Koizumi et al. (“Strokes”, Vol. 8, pp 1-8, 1986). The MCA occlusion was 4 hours, and a single dose of drug solution was intravenously administered 6 or 10 hours after the start of ischemia (i.e., 2 hours or […]). Brain slice samples were prepared 24 hours after the start of infarction and stained with triphenyltetrazolium chloride (TTC staining), and then the cerebral infarct volume was measured from the brain slice samples by image processing.
# [2] = system: middle cerebral artery (MCA) occlusion model mice; test: Evaluation of preventive effect on ischemia-reperfusion brain damage (MCA occlusion model, drug i.v. immediately before and 3 h after infarction); type: in vivo, male ddY mice; conditions: 4 h MCA occlusion, infarct volume 24 h after start of occlusion (TTC)
# Description: In addition, a drug was administered immediately before infarction and during infarction in the MCA occlusion model, and the effect as a preventive drug was also investigated.
# (1) Evaluation Method for Preventive Effect of Ischemia-Reperfusion Brain Damage
# With the use of male ddY mice (25-30 g, 6-7 weeks old), middle cerebral artery (MCA) occlusion model mice were prepared according to the method of Koizumi et al. (“Strokes”, Vol. 8, pp 1-8, 1986). The MCA occlusion was carried out for 4 hours, a test drug solution was intravenously administered twice, namely, immediately before infarction and 3 hours after infarction. Brain slice samples were prepared 24 hours after the start of infarction and stained with triphenyltetrazolium chloride (TTC staining), and then the cerebral infarct volume was measured from the brain slice samples by image processing.
# [3] = system: mouse middle cerebral artery (MCA) occlusion model; conditions: i.v. twice, immediately before infarction and during infarction; prophylactic; cited from earlier work
# [4] = single i.v. dose 20 μmol/kg 6 hours after start of ischemia
# [5] = i.v. 20 mmol/kg×2 doses (so in the source)
# [6] = single i.v. dose 2 μmol/kg 6 hours after start of ischemia
Molecule,"suppression of the infarct volume [1, 4]",suppression of the infarct volume ([2]; i.v. 2 μmol/kg×2 doses),"suppression of the infarct volume [2, 5]","suppression of the infarct volume [1, 6]",suppression of the infarct volume ([2]; i.v. 20 μmol/kg×2 doses),infarct inhibitory effect [3],suppression of the infarct volume ([1]; single i.v. dose 20 μmol/kg 10 hours after start of ischemia)
2R-γ-tocopheryl phosphate disodium salt [γ-TPS],a significant suppression of the infarct volume was observed,–,–,–,–,–,–
"Cc1c(OC(=O)CN(C)C)cc2c(c1C)O[C@](C)(CCC[C@H](C)CCC[C@H](C)CCCC(C)C)CC2.Cl [γ-TDMG, 2R-γ-tocopheryl N,N-dimethylglycinate hydrochloride]",significantly suppressed,a significant suppression of the infarct volume was observed,a significant suppression of the infarct volume was observed,significantly suppressed,–,–,–
"Cc1c(O)cc2c(c1C)O[C@](C)(CCC[C@H](C)CCC[C@H](C)CCCC(C)C)CC2 [γ-Toc, 2R-γ-tocopherol, reference compound]",significantly suppressed,significantly suppressed,–,significantly suppressed,significantly suppressed,excellent infarct inhibitory effect,–
"Cc1c(C)c2c(c(C)c1O)CC[C@@](C)(CCC[C@H](C)CCC[C@H](C)CCCC(C)C)O2 [α-Toc, 2R-α-tocopherol, reference compound]",–,a significant suppression of the infarct volume was not observed,–,–,significantly suppressed,–,–
"CC1=NN(c2ccccc2)C(=O)C1 [edaravone, reference compound]",–,significantly suppressed,–,–,a significant effect was not observed,–,–
"CC(C)=CCC/C(C)=C/CC/C(C)=C/CC[C@]1(C)CCc2c(C)c(O)c(C)c(C)c2O1 [α-T3, 2R-α-tocotrienol]",–,–,–,–,–,excellent infarct inhibitory effect,–
"CC(C)=CCCC(C)=CCCC(C)=CCOC(=O)CN(C)C.Cl [FODMG, farnesol N,N-dimethylglycinate hydrochloride]",significantly suppressed,significantly suppressed,significantly suppressed,–,–,–,significantly suppressed
"CC(C)=CCC/C(C)=C/CC/C(C)=C/CO [FO, (2E,6E) farnesol, reference compound]",–,significant suppression of the infarct volume was not observed,–,–,significantly suppressed,–,–
"CC(C)=CCC/C(C)=C/CC/C(C)=C/CC[C@]1(C)CCc2c(C)c(OC(=O)CN(C)C)c(C)c(C)c2O1.Cl [α-T3DMG, 2R-α-tocotrienyl N,N-dimethylglycinate hydrochloride]",significantly suppressed,a significant suppression of the infarct volume was observed,–,significantly suppressed,a significant suppression of the infarct volume was observed,–,–
